Results taken from article PMC10829512, “Transport of metformin metabolites by guanidinium exporters of the small multidrug resistance family” (The Journal of General Physiology, 2024).

What was measured:
Gdx-Eco [1] = target: T1, Gdx-Eco (Escherichia coli, UniProt P69937); assay: SSM electrophysiology of Gdx-Eco proteoliposomes; type: biochemical; details: for Transport currents in substrate screen: 2 mM substrate; for Km: pH 7.5, mean ± SEM, read-out: Km determined using SSM electrophysiology
Description: Gdx-Clo ([Kermani et al., 2018]), Gdx-Eco ([Kermani et al., 2018]), EmrE ([Kermani et al., 2022]), and Gdx-pAmi ([Martinez-Vaz et al., 2022]) construct design and purification have been described previously. […] Proteins were overexpressed in C41(DE3). Expression was induced by the addition of 0.2 mM IPTG for 3 h. Cells were lysed and extracted with 2% n-decyl-β-D-maltoside (DM) for 2 h. After pelleting insoluble cell debris, proteins were purified using cobalt affinity resin. Wash buffer contained 25 mM Tris, pH 8.5, 150 mM NaCl, and 5 mM DM. For Gdx-pAmi, NaCl concentration was increased to 500 mM NaCl. The affinity column was washed with wash buffer, then wash buffer with 10 mM imidazole, prior to elution with wash buffer with 400 mM imidazole. For Gdx-Clo and Gdx-Eco, histidine tags were cleaved with LysC (200 ng/mg of protein; 2 h at room temperature; New England Biolabs), and for all others, histidine tags were cleaved with thrombin (1 U/mg of protein, overnight at room temperature; MilliporeSigma). Proteins were further purified using a gel filtration Superdex200 column (Cytiva) equilibrated with 100 mM NaCl, 10 mM N-2-hydroxyethylpiperazine-N′-2-ethanesulfonic acid (HEPES), pH 7.5, and 5 mM DM. Purified proteins were stored at 4°C for up to 5 days before detergent binding assays. To prepare proteoliposomes for electrophysiology assays, purified protein was mixed with E. coli polar lipid extract (10 mg/ml; Avanti Polar Lipids) solubilized with 35 mM 3-[(3-cholamidopropyl)dimethylammonio]-1-propanesulfonate (CHAPS) at a protein to lipid ratio of 40 μg SMR transporter: mg lipid (1:370 protein:lipid molar ratio) prior to detergent removal by dialysis. For preparations that included Fluc-Bpe, liposomes were reconstituted with a molar ratio of 0.3 Fluc-Bpe:1 SMRGdx: 5920 lipid (1 μg Fluc-Bpe and ∼2.5 μg SMRGdx per mg lipid). For liposome transport assays, proteoliposomes were prepared similarly, except that a 2:1 mixture of 1-palmitoyl, 2-oleoylphosphatidylethanolamine (POPE) and 1-palmitoyl, 2-oleoylphosphatidylglycerol (POPG) (10 mg/ml; Avanti Polar Lipids) was used with 0.2 μg protein/mg lipid. Proteoliposomes were stored at −80°C until use.
SSM experiments were performed using SURFE^2R N1 instrument (Nanion Technologies). Sensors were prepared with a 1,2-diphytanoyl-sn-glycero-3-phosphocholine (DPhPC) lipid monolayer according to published protocols ([Bazzone et al., 2017]). Each sensor’s capacitance and conductance were verified before use (<80 nF capacitance, <50 nS conductance) using Nanion software protocols. Proteoliposome stock was diluted 1:25 in assay buffer (100 mM KCl, 100 mM KPO4, pH 7.5) prior to adsorption to the DPhPC monolayer. For substrate screening experiments, reference substrate samples (Gdm^+ for SMRGdx, and TPA^+ for SMRQac) were checked periodically to test for the stability of the sensor; if the current amplitude of the reference compound differed by >10% on one sensor, it indicated the desorption of liposomes, and the sensor was not used for further experiments. For every SSM electrophysiology experiment, we used the same general solution exchange protocol: after 2 s perfusion with a non-activating solution, we perfused substrate-containing buffer for 2 s and then returned to the equilibrium condition with a 4 s perfusion of non-activating buffer. For experiments with the S104C/A70C crosslinked variant, reducing conditions were established by the addition of 2.5 mM tris(2-carboxyethyl)phosphine (TCEP) to the activating and non-activating buffers.
We screened a series of metformin metabolites for transport using SSM electrophysiology (Fig. 2, A and B).

Gdx-Clo A70C/S104C = assay: Tryptophan fluorescence binding to crosslinked variant; design: species or system Clostridales oral taxon 876; details: A70C/S104C under oxidizing conditions, read-out: Kd, fit to a single-site binding model
Description: Fluorescence emission spectra (λex = 280 nm, […]) were collected for 1 µM purified protein in assay buffer containing 200 mM NaCl, 10 mM HEPES, 10 mM bicine, 10 mM NaPO4, and 5 mM DM, with pH adjusted from 6.5 to 9.0. Substrate was added from a stock solution prepared in assay buffer. For Gdm^+ titrations, the change in fluorescence, F, as a function of substrate fit to a single site binding isotherm, ∆F=(Fmax[S]/Kd+[S]). (3)
For all SSM electrophysiology experiments, the shapes of the substrate-induced currents are characteristic of transport, rather than electrogenic presteady binding events. However, we sought to confirm this interpretation for at least one transporter/substrate pair. Using the structure of Gdx-Clo ([Kermani et al., 2020]), we introduced a pair of cysteines, A70C and S104C, that are within the crosslinking distance (∼6 Å) on the open side of the transporter, but that increase in distance when the transporter changes conformation. We expected that the formation of a crosslink would lock the transporter in one open conformation, impairing transport, with little effect on substrate binding (Fig. 2 C). […] Substrate exchange is restored in reducing conditions. […]

Gdx-Eco [2] = target: T1, Gdx-Eco; design: method as in Kermani et al., 2018; Thomas et al., 2021; details: ref Kermani et al., 2018, Thomas et al., 2021; cited from earlier work

T1 sequence (P69937 whole entry): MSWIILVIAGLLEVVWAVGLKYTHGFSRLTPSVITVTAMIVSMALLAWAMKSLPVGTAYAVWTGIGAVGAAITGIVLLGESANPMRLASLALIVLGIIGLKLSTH

In the case of N=C(N)N [Gdm^+, guanidinium], the “Transport currents in substrate screen” value (Gdx-Eco [1]) is reported as “negative capacitive currents”, the Km (Gdx-Eco [1]) is reported as 1700 ± 500 µM and the “Maximal velocity for Gdm+ relative to guanylurea” value (Gdx-Eco [1]; substrate at fivefold Km, normalized to Fluc-Bpe fluoride current) is reported as “approximately twofold higher”. The Kd (Gdx-Clo A70C/S104C) was 560 µM and the Proton coupling stoichiometry (Gdx-Eco [2]) was 2 H^+: 1 Gdm^+.
With N=C(N)NC(N)=O [Guanylurea, guanylurea] the “Transport currents in substrate screen” value (Gdx-Eco [1]) was “negative capacitive currents” and the Km (Gdx-Eco [1]) was 850 ± 100 µM.
